Reference: paper PMC10569036

Assay: shake flask on a mixture of 185; loss from the water phase only; LC-Orbitrap peak areas
Settings: room

Compound	log partition 1-octanol / HPLC water, unbuffered, traces of methanol / DMSO	log partition butyl acetate / HPLC water, unbuffered, traces of methanol / DMSO	log partition chloroform / HPLC water, unbuffered, traces of methanol / DMSO	log partition cyclohexane / HPLC water, unbuffered, traces of methanol / DMSO	log partition dichloromethane / HPLC water, unbuffered, traces of methanol / DMSO	log partition n-hexane / HPLC water, unbuffered, traces of methanol / DMSO	log partition n-octane / HPLC water, unbuffered, traces of methanol / DMSO	log partition n-undecane / HPLC water, unbuffered, traces of methanol / DMSO	log partition oleylalcohol / HPLC water, unbuffered, traces of methanol / DMSO	log partition toluene / HPLC water, unbuffered, traces of methanol / DMSO
O=P(OC(CCl)CCl)(OC(CCl)CCl)OC(CCl)CCl	0.3708 log10	0.4116 log10	0.2335 log10	0.5355 log10	0.1218 log10	0.2465 log10	0.2541 log10	0.3474 log10	0.1893 log10	0.1777 log10
Cc1cc(O)cc(C)c1Cl	0.7604 log10	0.7531 log10	0.7311 log10	0.5528 log10	0.8657 log10	0.611 log10	0.5049 log10	0.3954 log10	0.7156 log10	0.8203 log10
FC(F)C(F)(F)OCC(Cn1cncn1)c1ccc(Cl)cc1Cl (centres unmarked)	1.148 log10	1.223 log10	0.6534 log10	0.9109 log10	1.238 log10	0.4737 log10	0.5004 log10	0.1193 log10	0.4709 log10	1.159 log10

Continued, values first:

log partition 1-octanol / HPLC water, unbuffered, traces of methanol / DMSO	log partition butyl acetate / HPLC water, unbuffered, traces of methanol / DMSO	log partition chloroform / HPLC water, unbuffered, traces of methanol / DMSO	log partition cyclohexane / HPLC water, unbuffered, traces of methanol / DMSO	log partition dichloromethane / HPLC water, unbuffered, traces of methanol / DMSO	log partition n-hexane / HPLC water, unbuffered, traces of methanol / DMSO	log partition n-octane / HPLC water, unbuffered, traces of methanol / DMSO	log partition n-undecane / HPLC water, unbuffered, traces of methanol / DMSO	log partition oleylalcohol / HPLC water, unbuffered, traces of methanol / DMSO	log partition toluene / HPLC water, unbuffered, traces of methanol / DMSO	Compound
1.166 log10	0.4802 log10	0.1266 log10	0.1355 log10	0.03099 log10	0.4617 log10	0.03342 log10	0.09286 log10	0.8298 log10	-0.1412 log10	CCOc1ccc2c(c1)C(C)CC(C)(C)N2 (centres unmarked)
1.103 log10	0.744 log10	0.6525 log10	-0.1972 log10	0.6427 log10	-0.2041 log10	0.07134 log10	0.1833 log10	0.9527 log10	0.4176 log10	CCCCNC(=S)NCCCC
